In US10385103B2, “Cell-permeable (ICP)-SOCS3 recombinant protein and uses thereof” (CELLIVERY THERAPEUTICS, INC., priority 2014, dated 2019):

Test system: RAW 264.7 cells
Assay: Quantitative cell-permeability of FITC-labeled aMTD- or rPeptide-fused CRA recombinant proteins (flow cytometry)
Type: cell-based
Conditions: for Relative Ratio to aMTD AVE: cell-permeability of rPeptide-fused CRA recombinant protein relative to average of 240 aMTDs
Source text: The aMTDs and rPeptides were fluorescently labeled and compared based on the critical factors for cell-permeability by using flow cytometry and confocal laser scanning microscopy (FIGS. 5 to 8). The cellular uptake of the peptide-fused non-functional cargo recombinant proteins could quantitatively be evaluated in flow cytometry, while confocal laser scanning microscopy allows intracellular uptake to be assessed visually. The analysis included recombinant proteins fused to a negative control [rP38] that has opposite characteristics (hydrophilic and aromatic sequence: […] NO: 952)) to the aMTDs (hydrophobic and aliphatic sequences). Relative cell-permeability (relative fold) of aMTDs to the negative control was also analyzed (Table 23 and FIG. 9). […] RAW 264.7 cells were treated with 10 μM FITC-labeled recombinant proteins for 1 hour at 37° C., washed three times with cold PBS, treated with 0.25% tripsin/EDTA (Sigma-Aldrich, St. Louis, Mo.) for 20 minutes at 37° C. to remove cell-surface bound proteins. Cell-permeability of these recombinant proteins were analyzed by flow cytometry (Guava, Millipore, Darmstadt, Germany) using the FlowJo cytometric analysis software (FIGS. 5 to 6).

[1] = cell-permeability relative to negative control rP38 (A type), aMTD-fused CRA recombinant protein, 10 μM FITC-labeled, 1 hour, 37° C., RAW 264.7 cells
[2] = cell-permeability relative to reference CPP MTD85 (C type), aMTD-fused CRA recombinant protein, 10 μM FITC-labeled, 1 hour, 37° C., RAW 264.7 cells
[3] = cell-permeability relative to reference CPP MTM12 (B type), aMTD-fused CRA recombinant protein, 10 μM FITC-labeled, 1 hour, 37° C., RAW 264.7 cells
[4] = cell-permeability of aMTD-fused CRA recombinant protein relative to negative control (A: rP38)
[5] = cell-permeability of aMTD-fused CRA recombinant protein relative to reference CPP (B: MTM12)
[6] = cell-permeability of aMTD-fused CRA recombinant protein relative to reference CPP (C: MTD85)
[7] = 10 μM FITC-labeled, 1 hour, 37° C., RAW 264.7 cells

Substance	Relative Ratio (Fold) A [1]	Relative Ratio (Fold) C [2]	Relative Ratio (Fold) B [3]	Relative Ratio (Fold) A [4]	Relative Ratio (Fold) B [5]	Relative Ratio (Fold) C [6]	other results
184 (LAAIVPAIIAVP; Amino acid Sequence of aMTD184) [compound 184]	4.8 Fold	1.6 Fold	3.2 Fold	–	–	–	–
185 (AALVLPLIIAAP; Amino acid Sequence of aMTD185) [compound 185]	–	–	–	8.5 Fold	5.7 Fold	2.9 Fold	–
201 (LALAVPALAALP; Amino acid Sequence of aMTD201) [compound 201]	4.2 Fold	1.4 Fold	2.8 Fold	–	–	–	–
221 (AAILAPIVALAP; Amino acid Sequence of aMTD221) [compound 221]	–	–	–	10.9 Fold	7.3 Fold	3.7 Fold	–
222 (ALLIAPAAVIAP; Amino acid Sequence of aMTD222) [compound 222]	–	–	–	32.6 Fold	21.7 Fold	11.0 Fold	–
223 (AILAVPIAVVAP; Amino acid Sequence of aMTD223) [compound 223]	–	–	–	33.0 Fold	22.1 Fold	11.2 Fold	–
225 (VAALLPAAAVLP; Amino acid Sequence of aMTD225) [compound 225]	–	–	–	18.3 Fold	12.2 Fold	6.2 Fold	–
227 (LAAIVPIAAAVP; Amino acid Sequence of rPeptide ID 227) [compound 227]	–	–	–	–	–	–	Relative Ratio to aMTD AVE [7]: 0.08
241 (AAAVVPVLLVAP; Amino acid Sequence of aMTD241) [compound 241]	–	–	–	16.6 Fold	11.0 Fold	5.6 Fold	Relative Ratio to aMTD AVE [7]: 0.33
242 (AALLVPALVAAP; Amino acid Sequence of aMTD242) [compound 242]	–	–	–	14.6 Fold	9.7 Fold	4.9 Fold	–
243 (AAVLLPVALAAP; Amino acid Sequence of aMTD243) [compound 243]	5.9 Fold	2.0 Fold	3.9 Fold	–	–	–	–
245 (AAALAPVLALVP; Amino acid Sequence of aMTD245) [compound 245]	–	–	–	7.5 Fold	5.0 Fold	2.5 Fold	–
261 (LVLVPLLAAAAP; Amino acid Sequence of aMTD261) [compound 261]	–	–	–	18.5 Fold	12.3 Fold	6.2 Fold	–
262 (ALIAVPAIIVAP; Amino acid Sequence of aMTD262) [compound 262]	5.5 Fold	1.9 Fold	3.7 Fold	–	–	–	–
263 (ALAVIPAAAILP; Amino acid Sequence of aMTD263) [compound 263]	–	–	–	9.0 Fold	6.0 Fold	3.0 Fold	–
264 (LAAAPVVIVIAP; Amino acid Sequence of aMTD264) [compound 264]	–	–	–	18.2 Fold	12.1 Fold	6.1 Fold	Relative Ratio (Fold) A (relative cell-permeability of aMTD vs reference A (not defined)): 18.2 Fold; Relative Ratio (Fold) B (relative cell-permeability of aMTD vs reference CPP B: MTM12): 12.1 Fold; Relative Ratio (Fold) C (relative cell-permeability of aMTD vs reference CPP C: MTD85): 6.1 Fold
265 (VLAIAPLLAAVP; Amino acid Sequence of aMTD265) [compound 265]	6.0 Fold	2.0 Fold	4.0 Fold	–	–	–	–
281 (ALIVLPAAVAVP; Amino acid Sequence of aMTD281) [compound 281]	13.3 Fold	4.5 Fold	8.9 Fold	13.3 Fold	8.9 Fold	4.5 Fold	–
